Measured values published in US8518700B2, “Composition for reprogramming somatic cells to generate induced pluripotent stem cells, comprising Bmi1 and low molecular weight substance, and method for generating induced pluripotent stem cells using the same” (Korea University Research and Business Foundation, priority 2010, dated 2013).

Tests used:
Assay type in all cases: cell-based
[1] = system: Bmi1-transduced mouse somatic cells (neurosphere-like cells); assay: Reprogramming of neurosphere-like cells from Bmi1-transduced mouse somatic cells (EGF-free neural stem cell condition) into iPS cells; conditions: 1 μM BIX01294 and 0.5 μM RG108 together; one week; condition used for mouse embryonic stem cells
Procedure: (§1) Mouse somatic cells, in detail, mouse fibroblasts were employed to generate embryonic stem cell-like cells. Embryos were taken from CF1 strain mice on embryonic day 13.5. Cells were cultured in DMEM (high glucose, w/o sodium pyruvate) supplemented with 10% FBS (Fetal bovine serum), 0.1 mM non-essential amino acid, 1% penicillin/streptomycin and 0.1 mM β-mercaptoethanol in tissue culture flasks, after which fibroblasts at the 3rd passage were seeded at a density of 2×10^5 cells/well into 6-well plates.
(§2) For use in gene transfer, retrovirus particles were prepared from the PT67 packaging cell line. In this context, a pBabe puro Bmi1 (from Dr. G. P. Dimri, Evanston Northwestern Healthcare Research Institute, Feinberg School of Medicine, Northwestern University, Evanston, Ill. 60201, USA), constructed by inserting a human Bmi1 gene (NCBI accession No. L13689) into a pBabe puro vector, was transfected into a PT67 packaging cell line (Clontech) with the aid of Turbofect (Fermentas), followed by drug selection with puromycine (3 μg/ml, BD bioscience). The PT67 packaging cell line allowed the production of high-titer viruses capable of infecting a broad range of mammalian host cells.
(§3) The expression of each gene was monitored with RT-PCR. […]

[2] = system: Bmi1-transduced mouse somatic cells (Oct4-positive cells); assay: Reprogramming of Oct4-positive Bmi1-transduced mouse somatic cells into iPS cells by treatment with low molecular weight substances; conditions: 0.5 μM PD0325901 and 3 μM CHIR99021 together; culture conditions of mouse embryonic stem cells
Procedure: as §1, §2, §3

[3] = system: Bmi1-transduced mouse somatic cells (neurosphere-like cells); assay: Reprogramming of neurosphere-like cells from Bmi1-transduced mouse somatic cells (neural stem cell condition with bFGF and EGF) into iPS cells; conditions: 2 mM VPA; one week; condition used for mouse embryonic stem cells
Procedure: as §1, §2, §3

| Structure (SMILES) | Reprogramming into iPS cells (BC-iPS 2) [1] | Reprogramming into iPS cells (BC-iPS 1) [2] | further results |
| --- | --- | --- | --- |
| COc1cc2nc(N3CCCN(C)CC3)nc(NC3CCN(Cc4ccccc4)CC3)c2cc1OC [BIX01294, 2-(Hexahydro-4-methyl-1H-1,4-diazepin-1-yl)-6,7-dimethoxy-N-[1-(phenylmethyl)-4-piperidinyl]4-quinazolinamine] | establish iPS cells |  |  |
| Cc1c[nH]c(-c2cnc(NCCNc3ccc(C#N)cn3)nc2-c2ccc(Cl)cc2Cl)n1 [CHIR99021] |  | establish induced stem cells |  |
| O=C(NOC[C@H](O)CO)c1ccc(F)c(F)c1Nc1ccc(I)cc1F [PD0325901] |  | establish induced stem cells |  |
| O=C(O)[C@H](Cc1c[nH]c2ccccc12)N1C(=O)c2ccccc2C1=O [RG108, N-Phthalyl-L-tryptophan] | establish iPS cells |  |  |
| CCCC(CCC)C(=O)O [VPA, 2-propylenepentanoic acid] |  |  | Reprogramming into iPS cells [3]: iPS cells were established |
